From PubChem BioAssay AID1259407 (Chemical Carcinogenesis Research Information System (CCRIS), 2018) come the findings set out here.

The source made the active and inactive calls. The rule behind the calls is not given here.

The data set relates to CCRIS mutagenicity, Ames/micronucleus/aberration tests. Put plainly: CCRIS mutagenicity studies.
Where [1] appears, read: Test System: AMES SALMONELLA TYPHIMURIUM, Strain/Indicator: TA100, Metabolic Activation: NONE, Method: PREINCUBATION

For `CC(=O)O[C@@H]1[C@@H](O)[C@H]2O[C@@H]3C=C(C)C(=O)[C@@H](O)[C@]3(CO)[C@]1(C)[C@]21CO1`, the mutagenic call (Test System: AMES SALMONELLA TYPHIMURIUM, Strain/Indicator: TA98, Metabolic Activation: NONE, Method: STANDARD PLATE) is “inactive; negative”; the mutagenic call (Test System: AMES SALMONELLA TYPHIMURIUM, Strain/Indicator: TA98, Metabolic Activation: RAT LIVER S-9, DELOREM 103, Method: STANDARD PLATE) is “inactive; negative”; the mutagenic call under setting [1] was “inactive; negative”; the mutagenic call (Test System: AMES SALMONELLA TYPHIMURIUM, Strain/Indicator: TA100, Metabolic Activation: NONE, Method: STANDARD PLATE) was “inactive; negative”; the mutagenic call (Test System: AMES SALMONELLA TYPHIMURIUM, Strain/Indicator: TA100, Metabolic Activation: RAT LIVER S-9, DELOREM 103, Method: STANDARD PLATE) is “inactive; negative”; the mutagenic call (Test System: AMES SALMONELLA TYPHIMURIUM, Strain/Indicator: TA100, Metabolic Activation: RAT, LIVER, S-9, PHENOBARBITAL, Method: PREINCUBATION) was “inactive; negative”.

In the case of `O[C@H]1[C@H]2O[C@H]2c2c(ccc3cc4c(ccc5ccccc54)nc23)[C@@H]1O`, the mutagenic call (Test System: AMES SALMONELLA TYPHIMURIUM, Strain/Indicator: TA98, Metabolic Activation: NONE, Method: PREINCUBATION) is “active; positive”; the mutagenic call under setting [1] was “active; positive”; the mutagenic call (Test System: CHINESE HAMSTER V-79, Strain/Indicator: V-79/8-AZAGUANINE, Metabolic Activation: NONE) was “active; positive”.
